Reference: BindingDB's records for patent US11691963 (Ajax Therapeutics, 2023)

Target: Tyrosine-protein kinase JAK2 [Y1007F,Y1008F] (Homo sapiens, UniProt O60674, Y1007F/Y1008F)
Assay: JAK2 Binding Assay
Protocol: Streptavidin-coated magnetic beads were treated with biotinylated small molecule ligands for 30 minutes at room temperature to generate affinity resins for kinase assays. The liganded beads were blocked with excess biotin and washed with blocking buffer (SeaBlock (Pierce), 1% BSA, 0.05% Tween 20, 1 mmol/L DTT) to remove unbound ligand and to reduce nonspecific phage binding. Binding reactions were assembled by combining kinases, liganded affinity beads, and test compounds in 1× binding buffer (1×PBS, 0.05% Tween 20, 0.1% BSA, 1 mmol/L DTT). Test compound was prepared as 111× stocks in 100% DMSO and directly diluted into the assay wells. All reactions were performed in polypropylene 384-well plates in a final volume of 0.02 mL. The assay plates were incubated at room temperature with shaking for 1 hour and the affinity beads were washed with wash buffer (1×PBS, 0.05% Tween 20). The beads were then re-suspended in elution buffer (1×PBS, 0.05% Tween 20, 0.5 μmol/L non-biotinylated affinity ligand) and incubated at room temperature with shaking for 30 minutes. The kinase concentration in the eluate was measured by qPCR.

Tyrosine-protein kinase JAK2 [Y1007F,Y1008F], sequence (O60674 whole entry Y1007F/Y1008F): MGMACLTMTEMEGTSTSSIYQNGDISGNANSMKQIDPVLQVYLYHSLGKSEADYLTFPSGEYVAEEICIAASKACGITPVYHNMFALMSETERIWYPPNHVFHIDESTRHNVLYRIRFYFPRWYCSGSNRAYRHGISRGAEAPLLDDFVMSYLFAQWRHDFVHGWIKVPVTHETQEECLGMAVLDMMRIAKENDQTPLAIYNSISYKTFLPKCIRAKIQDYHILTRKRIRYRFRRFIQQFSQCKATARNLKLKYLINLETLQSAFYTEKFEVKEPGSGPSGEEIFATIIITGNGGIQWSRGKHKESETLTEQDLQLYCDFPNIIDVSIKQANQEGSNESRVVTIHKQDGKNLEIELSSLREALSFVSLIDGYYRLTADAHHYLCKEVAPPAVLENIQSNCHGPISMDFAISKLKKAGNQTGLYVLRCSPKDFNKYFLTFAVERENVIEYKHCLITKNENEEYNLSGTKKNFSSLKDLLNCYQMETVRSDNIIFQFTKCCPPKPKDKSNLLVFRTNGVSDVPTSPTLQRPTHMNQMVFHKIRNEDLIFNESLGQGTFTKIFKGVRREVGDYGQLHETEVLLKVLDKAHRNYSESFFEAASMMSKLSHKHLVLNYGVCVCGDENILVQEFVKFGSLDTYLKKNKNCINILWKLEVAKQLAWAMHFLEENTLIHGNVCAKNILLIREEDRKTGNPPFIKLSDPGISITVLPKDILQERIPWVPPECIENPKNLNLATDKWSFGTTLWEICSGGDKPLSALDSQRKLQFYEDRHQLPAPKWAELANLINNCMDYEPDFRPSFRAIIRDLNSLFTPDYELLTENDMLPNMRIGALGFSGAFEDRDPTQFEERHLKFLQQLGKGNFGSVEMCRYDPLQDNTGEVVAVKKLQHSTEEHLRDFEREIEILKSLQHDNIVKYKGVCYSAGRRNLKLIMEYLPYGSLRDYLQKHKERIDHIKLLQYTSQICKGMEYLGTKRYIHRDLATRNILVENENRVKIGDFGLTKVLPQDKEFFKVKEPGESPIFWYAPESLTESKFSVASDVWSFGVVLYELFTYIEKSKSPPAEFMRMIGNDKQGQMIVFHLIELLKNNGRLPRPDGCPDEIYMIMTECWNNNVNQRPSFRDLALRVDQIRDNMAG

Kd [µM]	SMILES
< 0.01	CC(=O)Nc1cc(Oc2cnc3nc(Nc4cc(C(C)(C)C)n([C@H]5C[C@@H](O)C5)n4)n(C)c3c2)ccn1 [US11691963, Example I-116]
< 0.01	CC(=O)Nc1cc(Oc2cnc3nc(Nc4cc(C(C)(C)C)n([C@H]5C[C@H](O)C5)n4)n(C)c3c2)ccn1 [US11691963, Example I-115]
< 0.01	CC(=O)Nc1cc(Oc2ccc3nc(Nc4cc5n(n4)CCCC5(C)C)n(C)c3n2)ccn1 [US11691963, Example I-42]
< 0.01	CC(=O)Nc1cc(Oc2ccc3nc(Nc4cc(C(C)(C)C)n(C[C@H]5C[C@@H](O)C5)n4)n(C)c3c2)ccn1 [US11691963, Example I-28]
